Measured values: PubChem BioAssay AID328 (DTP/NCI, 2004)
Where “and” joins values, the source holds several entries; their conditions need not be identical. Equal values may be shown once. Toxic doses and inconclusive results are not listed. The calls were made as follows: active = survival T/C of 150% or more; inactive = T/C below 125% in these data.

Tested on: BDF1 mice, P388 leukemia ip, median survival T/C
Experiment: NCI In Vivo Anticancer Drug Screen. Data for tumor model P388 Leukemia (intraperitoneal) in B6D2F1 (BDF1) mice
Settings: endpoint: median survival time, higher = longer survival
How it was run: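 Each value expresses how treatment altered survival: treated-mouse outcome over vehicle-mouse outcome, both groups bearing the transplanted tumour.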

[1] = dose: 25.0 mg/kg/injection, schedule: Q04DX003 (ip), vehicle: saline
[2] = dose: 100.0 mg/kg/injection, schedule: Q01DX009 (ip), vehicle: Klucel (hydroxypropylcellulose) (HPC)
[3] = dose: 100.0 mg/kg/injection, schedule: Q04DX003 (ip), vehicle: Klucel (hydroxypropylcellulose) (HPC)
[4] = dose: 200.0 mg/kg/injection, schedule: Q01DX009 (ip), vehicle: Klucel (hydroxypropylcellulose) (HPC)
[5] = dose: 200.0 mg/kg/injection, schedule: Q04DX003 (ip), vehicle: Klucel (hydroxypropylcellulose) (HPC)
[6] = dose: 400.0 mg/kg/injection, schedule: Q01DX009 (ip), vehicle: Klucel (hydroxypropylcellulose) (HPC)
[7] = dose: 400.0 mg/kg/injection, schedule: Q04DX003 (ip), vehicle: Klucel (hydroxypropylcellulose) (HPC)
[8] = dose: 6.25 mg/kg/injection, schedule: Q01DX009 (ip), vehicle: Klucel (hydroxypropylcellulose) (HPC)
[9] = dose: 12.5 mg/kg/injection, schedule: Q01DX009 (ip), vehicle: Klucel (hydroxypropylcellulose) (HPC)
[10] = dose: 25.0 mg/kg/injection, schedule: Q01DX009 (ip), vehicle: saline
[11] = dose: 50.0 mg/kg/injection, schedule: Q01DX009 (ip), vehicle: saline
[12] = dose: 100.0 mg/kg/injection, schedule: Q01DX009 (ip), vehicle: saline
[13] = dose: 50.0 mg/kg/injection, schedule: Q01DX009 (ip), vehicle: saline with Tween-80
[14] = dose: 100.0 mg/kg/injection, schedule: Q01DX009 (ip), vehicle: saline with Tween-80
[15] = dose: 200.0 mg/kg/injection, schedule: Q01DX009 (ip), vehicle: saline

Measured: T/C

Cn1cnc([N+](=O)[O-])c1Sc1nc(N)nc2c1ncn2C1OC(CO)C(O)C1O (centres undefined)
active: dose: 7.0 mg/kg/injection, schedule: Q04DX003 (ip), vehicle: saline 163 % of control | dose: 9.2 mg/kg/injection, schedule: Q01DX009 (ip), vehicle: saline 163 % of control | dose: 14.06 mg/kg/injection, schedule: Q01DX009 (ip), vehicle: saline 163 % of control | dose: 16.0 mg/kg/injection, schedule: Q04DX003 (ip), vehicle: saline 168 % of control and 172 % of control | [1] 161 % of control and 168 % of control
inactive: dose: 7.03 mg/kg/injection, schedule: Q01DX009 (ip), vehicle: saline 120 % of control | dose: 21.0 mg/kg/injection, schedule: Q01DX009 (ip), vehicle: saline 95 % of control | dose: 56.25 mg/kg/injection, schedule: Q01DX009 (ip), vehicle: saline 100 % of control | dose: 150.0 mg/kg/injection, schedule: Q04DX003 (ip), vehicle: saline 104 % of control and 113 % of control | dose: 225.0 mg/kg/injection, schedule: Q04DX003 (ip), vehicle: saline 109 % of control | dose: 335.0 mg/kg/injection, schedule: Q04DX003 (ip), vehicle: saline 109 % of control

O=C(CN1CCCCC1)Nc1nc(-c2ccc(Cl)cc2)cs1
inactive: dose: 100.0 mg/kg/injection, schedule: Q01DX005 (ip), vehicle: saline with Tween-80 91 % of control

COC(=O)Nc1nc2ccc(Br)cc2[nH]1
inactive: [2] 104 % of control | [3] 109 % of control | [4] 112 % of control | [5] 109 % of control | [6] 116 % of control | [7] 113 % of control

CCCCCCCCCCCCCCCCCCOc1ccccn1
inactive: dose: 3.12 mg/kg/injection, schedule: Q01DX009 (ip), vehicle: Klucel (hydroxypropylcellulose) (HPC) 100 % of control | [8] 104 % of control | [9] 104 % of control | [3] 95 % of control | [5] 100 % of control | [6] 89 % of control | [7] 95 % of control

CC(CCC(C)OS(C)(=O)=O)OS(C)(=O)=O (centres undefined)
inactive: dose: 2.0 mg/kg/injection, schedule: Q01DX010 (ip), vehicle: saline 100 % of control | dose: 4.0 mg/kg/injection, schedule: Q01DX010 (ip), vehicle: saline 95 % of control | dose: 8.0 mg/kg/injection, schedule: Q01DX010 (ip), vehicle: saline 118 % of control | dose: 16.0 mg/kg/injection, schedule: Q01DX010 (ip), vehicle: saline 122 % of control

CCOC(=O)C(C(C)=O)C(c1ccc([N+](=O)[O-])cc1)C(C(C)=O)C(=O)OCC (centres undefined)
inactive: dose: 0.78 mg/kg/injection, schedule: Q04DX003 (ip), vehicle: saline 117 % of control | dose: 1.56 mg/kg/injection, schedule: Q04DX003 (ip), vehicle: saline 114 % of control | dose: 3.12 mg/kg/injection, schedule: Q01DX009 (ip), vehicle: saline 108 % of control | dose: 3.12 mg/kg/injection, schedule: Q04DX003 (ip), vehicle: saline 104 % of control | dose: 6.25 mg/kg/injection, schedule: Q01DX009 (ip), vehicle: saline 106 % of control | dose: 6.25 mg/kg/injection, schedule: Q04DX003 (ip), vehicle: saline 99 % of control | dose: 12.5 mg/kg/injection, schedule: Q01DX009 (ip), vehicle: saline 100 % of control | dose: 12.5 mg/kg/injection, schedule: Q04DX003 (ip), vehicle: saline 111 % of control | [10] 92 % of control | [1] 99 % of control | [11] 89 % of control | [12] 93 % of control

Nc1ncnc2c1ncn2C1CC(O)C(CO)O1 (centres undefined)
inactive: dose: 440.0 mg/kg/injection, schedule: Q01DX009 (ip), vehicle: saline with Tween-80 93 % of control | dose: 660.0 mg/kg/injection, schedule: Q01DX009 (ip), vehicle: saline with Tween-80 93 % of control | dose: 1000.0 mg/kg/injection, schedule: Q01DX009 (ip), vehicle: saline with Tween-80 105 % of control

CCN(CC)C(C)CN1c2ccccc2Sc2ccccc21 (centres undefined)
inactive: [10] 100 % of control | [11] 112 % of control | [12] 116 % of control

CC(=O)C1CCCC23CC(CC12)C(C)(C)C3OC=O (centres undefined)
inactive: [3] 90 % of control | [5] 100 % of control | [7] 109 % of control

COC(=O)C(NC(C)=O)C(=O)OC
inactive: [2] 104 % of control | [4] 92 % of control | [6] 88 % of control

O=[N+]([O-])c1ccc(SC2=NCCN2)c(Cl)c1
inactive: [13] 94 % of control | [14] 103 % of control | dose: 200.0 mg/kg/injection, schedule: Q01DX009 (ip), vehicle: saline with Tween-80 112 % of control

COc1ccc2[nH]c3c(c2c1)CCNC3CC(C)CCC=C(C)C (centres undefined)
inactive: [13] 93 % of control | [14] 113 % of control

CCC1SC(=S)N(c2ccc(S(N)(=O)=O)cc2)C1=O (centres undefined)
inactive: dose: 33.75 mg/kg/injection, schedule: Q01DX009 (ip), vehicle: saline with Tween-80 96 % of control | dose: 67.5 mg/kg/injection, schedule: Q01DX009 (ip), vehicle: saline with Tween-80 97 % of control | dose: 135.0 mg/kg/injection, schedule: Q01DX009 (ip), vehicle: saline with Tween-80 97 % of control

N#CO
inactive: dose: 33.0 mg/kg/injection, schedule: Q01DX009 (ip), vehicle: saline 103 % of control (2×) and 113 % of control | dose: 42.0 mg/kg/injection, schedule: Q01DX009 (ip), vehicle: saline 109 % of control | [11] 96 % of control and 122 % of control | dose: 56.0 mg/kg/injection, schedule: Q01DX009 (ip), vehicle: saline 90 % of control | dose: 75.0 mg/kg/injection, schedule: Q01DX009 (ip), vehicle: saline 100 % of control and 121 % of control | [12] 109 % of control

CN(C)c1ccc(N(C)C)c(C(O)(c2ccccc2)c2ccccc2)c1
inactive: dose: 12.5 mg/kg/injection, schedule: Q01DX009 (ip), vehicle: saline with Tween-80 95 % of control | dose: 25.0 mg/kg/injection, schedule: Q01DX009 (ip), vehicle: saline with Tween-80 93 % of control | [13] 95 % of control

C/C=C/C(=O)OCC1CC[N+](C)([O-])C1 (centres undefined)
inactive: dose: 200.0 mg/kg/injection, schedule: Q01DX001 (ip), vehicle: saline 91 % of control | [15] 117 % of control | dose: 400.0 mg/kg/injection, schedule: Q01DX001 (ip), vehicle: saline 91 % of control | dose: 800.0 mg/kg/injection, schedule: Q01DX001 (ip), vehicle: saline 100 % of control | dose: 800.0 mg/kg/injection, schedule: Q01DX009 (ip), vehicle: saline 99 % of control | dose: 1600.0 mg/kg/injection, schedule: Q01DX001 (ip), vehicle: saline 95 % of control

CCOC(=O)CCN1CCCCCC1
inactive: [10] 91 % of control | [11] 120 % of control | [12] 95 % of control | dose: 100.0 mg/kg/injection, schedule: Q04DX003 (ip), vehicle: saline 100 % of control | [15] 92 % of control | dose: 200.0 mg/kg/injection, schedule: Q04DX003 (ip), vehicle: saline 100 % of control | dose: 400.0 mg/kg/injection, schedule: Q04DX003 (ip), vehicle: saline 118 % of control

O=Cc1ccc(/C=C2\NC(=O)NC2=O)cc1
inactive: dose: 3.12 mg/kg/injection, schedule: Q01DX009 (ip), vehicle: water 89 % of control | [8] 100 % of control | dose: 6.25 mg/kg/injection, schedule: Q01DX009 (ip), vehicle: water 106 % of control | [9] 95 % of control | dose: 12.5 mg/kg/injection, schedule: Q01DX009 (ip), vehicle: water 120 % of control | dose: 25.0 mg/kg/injection, schedule: Q01DX009 (ip), vehicle: Klucel (hydroxypropylcellulose) (HPC) 92 % of control | dose: 25.0 mg/kg/injection, schedule: Q01DX009 (ip), vehicle: water 121 % of control | dose: 50.0 mg/kg/injection, schedule: Q01DX009 (ip), vehicle: Klucel (hydroxypropylcellulose) (HPC) 92 % of control | dose: 50.0 mg/kg/injection, schedule: Q04DX003 (ip), vehicle: water 103 % of control | dose: 100.0 mg/kg/injection, schedule: Q04DX003 (ip), vehicle: water 87 % of control | dose: 200.0 mg/kg/injection, schedule: Q04DX003 (ip), vehicle: water 119 % of control
